Patent US9227971B2, “Pyrazolo[1,5-a]pyrimidine compounds as mTOR inhibitors” (Merck Sharp & Dohme Corp., priority 2010, dated 2016)
Like-named read-outs stand apart in the source and are kept apart here.

Tests used:
[1] = test system: phosphorylated AKT Ser473 (pAKT S473), mTORC2 activity, PC3 cells; experiment: mTOR target engagement assay, immunofluorescent cell-based, pAKT S473 readout (mTORC2 activity)
Procedure, shortened: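 After blocking, cells were stained overnight at 4 °C with anti-pAKT S473 antibody, then a fluorescent secondary; inhibition was read as reduced fluorescence intensity.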

[2] = test system: phosphorylated 4E-BP1 Thr37/46 (p4E-BP1 Thr37/46), mTORC1 activity, PC3 cells; experiment: mTOR target engagement assay, immunofluorescent cell-based, p4E-BP1 Thr37/46 readout (mTORC1 activity); settings: read-out: p4E-BP1 Thr37/46 IC50
Procedure: The target engagement of mTOR kinase inhibitors was evaluated using an immunofluorescent cell-based assay. In this assay, inhibition of mTORC1 activity was measured by the reduction in the level of phosphorylated 4E-BP1^[…] (p4E-BP1 Thr37/46), and inhibition of mTORC2 activity was measured by the reduction of phosphorylated AKT^Ser473 (pAKT S473).
PC3 cells (prostate tumor cell-line that contains a mutation in the tumor suppressor PTEN, that promotes the phosphorylation and activation of AKT and 4E-BP1) were used in the immunofluorescence assay. PC3 cells were seeded on 384 well plates (black clear bottom, Matrix #4332) overnight. PC3 cells were then treated with 40 μl of the serially diluted test compounds (in 5% fetal bovine serum, F12 medium containing 0.25% DMSO) for ninety minutes at 37° C. The test compound solution was removed, and the plates were washed gently two times with 25 μl phosphate buffered saline (PBS). The cells were fixed by adding 25 μl of Prefer reagent (from Anatech LTD, Cat#414, a glyoxal fixative for fixing proteins within a cell) for sixty minutes followed by three washes with PBS. 5% Goat serum in PBS/0.3% Triton was used to block non-specific binding (60 minutes).
The primary antibodies targeting pAKT S473 and p4E-BP1 Thr37/46 were diluted into PBS/0.3% Triton and incubated with the cells overnight at 4° C. The antibodies targeting pAKTS473 (Cat#4085, Cell signaling) and p4E-BP1 Thr37/46 (Cat#2855, Cell signaling) were used at a 1:100 dilution. Plates were washed three times with PBS/0.1% Tween 20 before adding the secondary antibody at a 1:200 dilution. (goat anti-rabbit containing a fluorescent label, Alexa Fluor 488, Cat#A11008, Invitrogen) in PBS/0.3% Triton for 60 minutes.
Finally, the plates were washed three times with PBS/0.1% Tween 20 and the fluorescent intensity was read using an Analyst HT from Molecular Devices. The fluorescent intensity values from the serially diluted compound treatment group were analyzed using the Xlfit 4 program ([…]) (Formula 205: Y=Bottom+(Top-Bottom)/(1+(IC50/X)^Hillslope) to generate the IC50 value. Where Top is the maximum signal without Compound (+DMSO only) and Bottom represents maximum inhibition. Y is the fluorescence at some compound concentration. The control used to determine the fluorescent intensities for 100% pAKT S473 or 100% phosphorylated p4E-BP1 Thr37/46 were measured from untreated wells that contained only DMSO, instead of test compound.

[3] = Homo sapiens, PC-3, Table 3-1, PC3 cells
[4] = Homo sapiens, PC-3, PC3 cells, compound treatment ninety minutes at 37° C.
[5] = Homo sapiens, PC-3, Table 6-1, PC3 cells

Structure (SMILES)	IC50 [1, 3] [nM]	IC50 [2, 3] [nM]	IC50 [1, 4] [nM]	IC50 [2, 4] [nM]	also measured
Cc1nnc(C(=O)N2[C@@H]3CC[C@H]2C[C@H](c2nc4c(-c5ccc(-c6ccccc6F)nc5)cnn4c(N)c2S(C)(=O)=O)C3)[nH]1 [Compound 3.133, ((1R,3s,5S)-3-(7-amino-3-(6-(2-fluorophenyl)pyridin-3-yl)-6-(methylsulfonyl)pyrazolo[1,5-a]pyrimidin-5-yl)-8-azabicyclo[3.2.1]octan-8-yl)(5-methyl-4H-1,2,4-triazol-3-yl)methanone]	1 to 100	1 to 100			
Nc1n[nH]cc1C(=O)N1[C@@H]2CC[C@H]1C[C@H](c1nc3c(-c4ccc(-c5ccccc5)nc4)cnn3c(N)c1C1CC1)C2 [Compound 4.30, (3-amino-1H-pyrazol-4-yl)((1R,3s,5S)-3-(7-amino-6-cyclopropyl-3-(6-phenylpyridin-3-yl)pyrazolo[1,5-a]pyrimidin-5-yl)-8-azabicyclo[3.2.1]octan-8-yl)methanone]			1 to 100	100 to 1000	
COc1ccc(-c2ccc(-c3cnn4c(N)c(S(C)(=O)=O)c([C@@H]5C[C@H]6CC[C@@H](C5)N6C(=O)c5nnc[nH]5)nc34)cn2)cc1Cl [Compound 3.51, ((1R,3s,5S)-3-(7-amino-3-(6-(3-chloro-4-methoxyphenyl)pyridin-3-yl)-6-(methylsulfonyl)pyrazolo[1,5-a]pyrimidin-5-yl)-8-azabicyclo[3.2.1]octan-8-yl)(4H-1,2,4-triazol-3-yl)methanone]	1 to 100	1 to 100			
Cn1nnc(-c2ccc(-c3cnn4c(N)c(S(C)(=O)=O)c([C@@H]5C[C@H]6CC[C@@H](C5)N6C(=O)c5nnc[nH]5)nc34)cn2)n1 [Compound 3.42, ((1R,3a,5S)-3-(7-amino-3-(6-(2-methyl-2H-tetrazol-5-yl)pyridin-3-yl)-6-(methylsulfonyl)pyrazolo[1,5-a]pyrimidin-5-yl)-8-azabicyclo[3.2.1]octan-8-yl)(4H-1,2,4-triazol-3-yl)methanone]	100 to 1000	1000 to 10000			
CS(=O)(=O)c1c([C@@H]2C[C@H]3CC[C@@H](C2)N3C(=O)C(O)C(F)(F)F)nc2c(-c3ccc(-c4ccccc4)nc3)cnn2c1N (stereo partly drawn) [Compound 3.15, 1-((1R,3s,5S)-3-(7-amino-6-(methylsulfonyl)-3-(6-phenylpyridin-3-yl)pyrazolo[1,5-a]pyrimidin-5-yl)-8-azabicyclo[3.2.1]octan-8-yl)-3,3,3-trifluoro-2-hydroxypropan-1-one]	1000 to 10000	1000 to 10000			
COCc1cnc(-c2ccc(-c3cnn4c(N)c(C(C)=O)c([C@@H]5C[C@H]6CC[C@@H](C5)N6C(=O)c5nnc[nH]5)nc34)cn2)s1 [Compound 1.1.52, 1-(5-((1R,3s,5S)-8-(4H-1,2,4-triazole-3-carbonyl)-8-azabicyclo[3.2.1]octan-3-yl)-7-amino-3-(6-(5-(methoxymethyl)thiazol-2-yl)pyridin-3-yl)pyrazolo[1,5-a]pyrimidin-6-yl)ethanone]			100 to 1000	100 to 1000	
Nc1c(C2CC2)c([C@@H]2C[C@H]3CC[C@@H](C2)N3C(=O)CO)nc2c(-c3ccc(-c4ncc[nH]4)c(F)c3)cnn12 [Compound 6.37, 1-((1R,3s,5S)-3-(7-amino-6-cyclopropyl-3-(3-fluoro-4-(1H-imidazol-2-yl)phenyl)pyrazolo[1,5-a]pyrimidin-5-yl)-8-azabicyclo[3.2.1]octan-8-yl)-2-hydroxyethanone]					IC50 [1, 5]: 1 to 100 nM; IC50 [2, 5]: 1 to 100 nM
[2H]C([2H])([2H])n1ccc(-c2ccc(-c3cnn4c(N)c(C(C)=O)c([C@@H]5C[C@H]6CC[C@@H](C5)N6C(=O)c5nnc[nH]5)nc34)cn2)n1 [Compound 1.1.82, 1-(5-((1R,3s,5S)-8-(4H-1,2,4-triazole-3-carbonyl)-8-azabicyclo[3.2.1]octan-3-yl)-7-amino-3-(6-(1-methyl-(D3)-1H-pyrazol-3-yl)pyridin-3-yl)pyrazolo[1,5-a]pyrimidin-6-yl)ethanone]			100 to 1000	100 to 1000	
COc1cc(F)c(-c2ccc(-c3cnn4c(N)c(C5CC5)c([C@@H]5C[C@H]6CC[C@@H](C5)N6C(=O)c5nnc[nH]5)nc34)cn2)cc1F [Compound 4.12, ((1R,3a,5S)-3-(7-amino-6-cyclopropyl-3-(6-(2,5-difluoro-4-methoxyphenyl)pyridin-3-yl)pyrazolo[1,5-a]pyrimidin-5-yl)-8-azabicyclo[3.2.1]octan-8-yl)(4H-1,2,4-triazol-3-yl)methanone]			1 to 100	1 to 100	
[2H]C([2H])([2H])Oc1ccc(-c2ccc(-c3ccn4c(N)c(S(C)(=O)=O)c([C@@H]5C[C@H]6CC[C@@H](C5)N6C(=O)c5nnc[nH]5)nc34)cn2)cc1 [Compound 3.62, ((1R,3s,5S)-3-(7-amino-3-(6-(4-methoxy-(D3)-phenyl)pyridin-3-yl)-6-(methylsulfonyl)pyrazolo[1,5-a]pyrimidin-5-yl)-8-azabicyclo[3.2.1]octan-8-yl)(4H-1,2,4-triazol-3-yl)methanone]	1 to 100	1 to 100			
CC(=O)c1c([C@@H]2C[C@H]3CC[C@@H](C2)N3C(=O)c2nnc[nH]2)nc2c(-c3ccc(-c4ncc[nH]4)c(F)c3)cnn2c1N [Compound 6.41, 1-(5-((1R,3s,5S)-8-(4H-1,2,4-triazole-3-carbonyl)-8-azabicyclo[3.2.1]octan-3-yl)-7-amino-3-(3-fluoro-4-(1H-imidazol-2-yl)phenyl)pyrazolo[1,5-a]pyrimidin-6-yl)ethanone]					IC50 [1, 5]: 1 to 100 nM; IC50 [2, 5]: 1 to 100 nM
CS(=O)(=O)c1c([C@H]2CC3CC[C@H](C2)N3C(=O)c2cn[nH]n2)nc2c(-c3cnn(-c4ccc(F)cc4)c3)cnn2c1N [Compound 3.178, ((1R,3s,5S)-3-(7-amino-3-(1-(4-fluorophenyl)-1H-pyrazol-4-yl)-6-(methylsulfonyl)pyrazolo[1,5-a]pyrimidin-5-yl)-8-azabicyclo[3.2.1]octan-8-yl)(2H-1,2,3-triazol-4-yl)methanone]	1000 to 10000	1000 to 10000			
CC(=O)c1c([C@@H]2C[C@H]3CC[C@@H](C2)N3C(=O)C(C)(CO)CO)nc2c(-c3ccc(-c4ncc[nH]4)nc3)cnn2c1N [Compound 6.46, 1-((1R,3s,5S)-3-(3-(6-(1H-imidazol-2-yl)pyridin-3-yl)-6-acetyl-7-aminopyrazolo[1,5-a]pyrimidin-5-yl)-8-azabicyclo[3.2.1]octan-8-yl)-3-hydroxy-2-(hydroxymethyl)-2-methylpropan-1-one]					IC50 [1, 5]: 100 to 1000 nM; IC50 [2, 5]: 100 to 1000 nM
CC(=O)c1c([C@@H]2C[C@H]3CC[C@@H](C2)N3C(=O)c2nnc[nH]2)nc2c(-c3ccc(-n4cccn4)nc3)cnn2c1N [Compound 1.1.177, 1-(3-(6-(1H-pyrazol-1-yl)pyridin-3-yl)-5-((1R,3s,5S)-8-(4H-1,2,4-triazole-3-carbonyl)-8-azabicyclo[3.2.1]octan-3-yl)-7-aminopyrazolo[1,5-a]pyrimidin-6-yl)ethanone]			1 to 100	1 to 100	
CC(=O)N1[C@@H]2CC[C@H]1C[C@H](c1nc3c(-c4ccc(-c5ncc(C)s5)nc4)cnn3c(N)c1S(C)(=O)=O)C2 [Compound 3.182, 1-((1R,3s,5S)-3-(7-amino-6-(methylsulfonyl)-3-(6-(5-methylthiazol-2-yl)pyridin-3-yl)pyrazolo[1,5-a]pyrimidin-5-yl)-8-azabicyclo[3.2.1]octan-8-yl)ethanone]					IC50 ([1]; Table 3-1, PC3 cells): 100 to 1000 nM; IC50 ([2]; Table 3-1, PC3 cells): 100 to 1000 nM
CC(=O)c1c(C2CC3CCCC(C2)N3C(=O)c2nc[nH]n2)nc2c(-c3ccc(-c4ccccc4)nc3)cnn2c1N (centres unmarked) [Compound 8.33, 1-(5-(9-(1H-1,2,4-triazole-3-carbonyl)-9-azabicyclo[3.3.1]nonan-3-yl)-7-amino-3-(6-phenylpyridin-3-yl)pyrazolo[1,5-a]pyrimidin-6-yl)ethanone]					IC50 ([1]; Homo sapiens, PC-3, PC3 cells): 100 to 1000 nM; IC50 ([2]; Homo sapiens, PC-3, PC3 cells): 100 to 1000 nM
